Several values for one entry are separate records, joined by “and”; a condition that tells them apart may be missing. Equal values may be shown once.
What was measured:
Oryctolagus sp. = conditions: for LD50: acute
Rattus norvegicus [1] = conditions: for LC50 / LD50: acute
Mus musculus = conditions: acute, injection
Rattus norvegicus [2] = conditions: chronic; duration: 2 years; oral; diet; M/F; neurotoxicity
[3] = developmental, duration: 14 days, oral, gavage, Wistar
[4] = short-term, duration: 12 days, inhalation, F, Crl:CD1
[5] = short-term, duration: 28 days, oral, gavage, Wistar
[6] = reproduction developmental, duration: 13 days, oral, gavage, F, New Zealand
[7] = reproduction developmental, oral, diet, Sprague-Dawley, generation: F1

C1OCOCO1 [1,3,5-Trioxane]
LD50 (Oryctolagus sp.; dermal): > 3980 mg/kg | LC50 (Rattus norvegicus [1]; inhalation): > 39200 mg/m3 | LD50 (Rattus norvegicus [1]; oral, gavage): 8190 mg/kg | LOAEL (Rattus norvegicus [1]; [3]): 315 mg/kg-day | NOAEL (Rattus norvegicus [1]; [3]): 100 mg/kg-day | LOAEL (Rattus norvegicus [1]; reproduction developmental, duration: 14 days, oral, gavage, F, Wistar): 100 mg/kg-day | LOAEL (Rattus norvegicus [1]; [4]): 3630 mg/m3 | NOAEL (Rattus norvegicus [1]; [4]): 379 mg/m3 | LOAEL (Rattus norvegicus [1]; [5]): 1000 mg/kg-day | NOAEL (Rattus norvegicus [1]; [5]): 200 mg/kg-day

Clc1ccccn1 [2-Chloropyridine]
LD50 (Oryctolagus sp.; dermal): < 200 mg/kg | LD50 (Rattus norvegicus [1]; oral, gavage): 342 mg/kg

C=CC(C)C#N (stereo not drawn) [2-Methyl-3-butenenitrile]
LD50 (Oryctolagus sp.; dermal, occlusive, New Zealand): 482 mg/kg | LC50 (Rattus norvegicus [1]; inhalation, Sprague-Dawley): 9950 mg/m3

CC(CO)CO [2-Methylpropane-1,3-diol]
LD50 (Oryctolagus sp.; dermal, New Zealand): > 2000 mg/kg | NOAEL (Oryctolagus sp.; reproduction developmental, duration: 28 days, oral, gavage, F, New Zealand): 1000 mg/kg-day | NOAEL (Oryctolagus sp.; reproduction developmental, duration: 28 days, oral, gavage, New Zealand, generation: F1): 1000 mg/kg-day | LC50 (Rattus norvegicus [1]; Inhalation, Wistar): > 5100 mg/m3 | LD50 (Rattus norvegicus [1]; oral, gavage, Wistar): > 5000 mg/kg | NOAEL (Rattus norvegicus [1]; developmental, duration: 20 days, oral, gavage, Wistar): 1000 mg/kg-day | NOAEL (Rattus norvegicus [1]; reproduction developmental, duration: 20 days, oral, gavage, F, Wistar): 1000 mg/kg-day | NOAEL (Rattus norvegicus [1]; reproduction developmental, duration: 20 days, oral, gavage, Wistar, generation: F1): 1000 mg/kg-day | NOAEL (Rattus norvegicus [1]; reproduction developmental, duration: 90 days, oral, gavage, Wistar, generation: F0): 1000 mg/kg-day | NOAEL (Rattus norvegicus [1]; short-term, duration: 14 days, oral, gavage, Wistar): 1000 mg/kg-day | NOAEL (Rattus norvegicus [1]; subchronic, duration: 90 days, oral, gavage, Wistar): 1000 mg/kg-day

CCCCNC(=O)OCC#CI [3-Iodo-2-propynyl-N-butylcarbamate]
NOAEL (Oryctolagus sp.; [6]): 20 mg/kg-day | NOAEL (Oryctolagus sp.; reproduction developmental, duration: 13 days, oral, gavage, New Zealand, generation: F1): 50 mg/kg-day | NOAEL (Oryctolagus sp.; subchronic, duration: 90 days, oral, diet, New Zealand): 16.5 mg/kg-day | LD50 (Rattus norvegicus [1]; oral, gavage, Sprague-Dawley): 1800 mg/kg and 1470 mg/kg and 1060 mg/kg

CCCCN(CCCC)C(=S)SCSC(=S)N(CCCC)CCCC [4,4'-Methylene bis(dibutyldithiocarbamate)]
LD50 (Oryctolagus sp.; dermal): > 2000 mg/kg | LD50 (Rattus norvegicus [1]; oral): 16000 mg/kg | NOAEL (Rattus norvegicus [1]; reproduction developmental, oral, diet, Sprague-Dawley, generation: F0): 1000 ppm | LOAEL (Rattus norvegicus [1]; [7]): > 20000 ppm | NOAEL (Rattus norvegicus [1]; [7]): > 20000 ppm

CC(C)(C)c1cc(C(C)(C)c2ccc(O)c(C(C)(C)C)c2)ccc1O [4,4'-Propane-2,2-diylbis(2-tert-butylphenol)]
LD50 (Mus musculus; Intraperitoneal): 40 mg/kg | LD50 (Mus musculus; intraperitoneal): 40 mg/kg

CCCCCCCC/C=C/CCCCCCCCN.F [9-Octadecen-1-amine, hydrofluoride]
LOAEL (Oryctolagus sp.; [6]): 1.2 mg/kg-day | NOAEL (Rattus norvegicus [1]; reproduction developmental, oral, gavage, Long-Evans, generation: F0): 6 mg/kg-day | NOAEL (Rattus norvegicus [1]; reproduction developmental, oral, gavage, Long-Evans, generation: F1): 30 mg/kg-day

CN(C)C(=S)SSC(=S)N(C)C [Bis(dimethylaminothiocarbonyl) disulfide]
LD50 (Oryctolagus sp.; dermal): ≥ 2000 mg/kg | LD50 (Oryctolagus sp.; dermal, New Zealand): > 7940 mg/kg | NOAEL (Oryctolagus sp.; reproduction developmental, duration: 14 days, oral, gavage, F, New Zealand): 5 mg/kg-day | NOAEL (Oryctolagus sp.; reproduction developmental, duration: 14 days, oral, gavage, New Zealand, generation: F1): 5 mg/kg-day | LD50 (Rattus norvegicus [1]; dermal): > 5000 mg/kg | LC50 (Rattus norvegicus [1]; inhalation, particle): > 6.22 µg/mL | LD50 (Rattus norvegicus [1]; oral, gavage, Sprague-Dawley): 1080 mg/kg | NOAEL (Rattus norvegicus [1]; reproduction developmental, duration: 10 days, oral, gavage, Crl:CD1, generation: F1): 7.5 mg/kg-day | NOAEL (Rattus norvegicus [1]; reproduction developmental, duration: 10 days, oral, gavage, F): > 30 mg/kg-day | NOAEL (Rattus norvegicus [1]; reproduction developmental, duration: 10 days, oral, gavage, F, Crl:CD1): 7.5 mg/kg-day | NOAEL (Rattus norvegicus [1]; reproduction developmental, duration: 10 days, oral, gavage, generation: F1): 7.5 mg/kg-day | NOAEL (Rattus norvegicus [1]; reproduction developmental, duration: 81 days, oral, diet, generation: F1): 60 ppm and 180 ppm | NOAEL (Rattus norvegicus [1]; subchronic, duration: 90 days, oral, diet, F): 2.5 mg/kg-day | NOAEL (Rattus norvegicus [1]; subchronic, duration: 90 days, oral, diet, M): 2.5 mg/kg-day | LEL (Rattus norvegicus [2]): 15 mg/kg-day | NOEL (Rattus norvegicus [2]): 5 mg/kg-day

O=c1[nH]c(=O)[nH]c(=O)[nH]1 [Cyanuric acid]
LD50 (Oryctolagus sp.; dermal, occlusive, New Zealand): > 5000 mg/kg | LD50 (Rattus norvegicus [1]; oral, gavage, Sprague-Dawley): > 5000 mg/kg

ClC1=C(Cl)C2(Cl)C3CCC4C(CCC3C1(Cl)C2(Cl)Cl)C1(Cl)C(Cl)=C(Cl)C4(Cl)C1(Cl)Cl (stereo not drawn) [Dechlorane Plus]
LD50 (Oryctolagus sp.; dermal): > 8000 mg/kg | LOAEC (Oryctolagus sp.; reproduction developmental, duration: 4 weeks, dermal, non-occlusive, New Zealand, generation: F0): 2000 mg/kg-day | LC50 (Rattus norvegicus [1]; inhalation, particle): > 300 µg/mL | LC50 (Rattus norvegicus [1]; inhalation, particle, Charles-River): > 2.25 µg/mL | LD50 (Rattus norvegicus [1]; oral, gavage, Sprague-Dawley): > 3160 mg/kg | LD50 (Rattus norvegicus [1]; oral, gavage, Wistar): > 25000 mg/kg | NOAEL (Rattus norvegicus [1]; reproduction developmental, duration: 13 weeks, oral, diet, Crl, generation: F0): 100000 ppm | LOAEL (Rattus norvegicus [1]; reproduction developmental, duration: 28 days, inhalation, particle, Charles River COB, generation: F0): 0.64 mg/L

CC(C)CCCCCCc1cccc2c(CCCCCCC(C)C)cccc12 [Diisononylnaphthalene]
LD50 (Oryctolagus sp.; dermal, New Zealand): > 20000 mg/kg | LC50 (Rattus norvegicus [1]; Inhalation, Wistar): > 17 µg/mL | LD50 (Rattus norvegicus [1]; oral, gavage, Wistar): > 5000 mg/kg

CCCCCCCCCCc1cccc(Oc2ccccc2S(=O)(=O)[O-])c1S(=O)(=O)[O-].[Na+].[Na+] [Disodium n-decyldiphenyl ether disulfonate]
LD50 (Oryctolagus sp.; dermal, occlusive, New Zealand): > 2000 mg/kg | LD50 (Rattus norvegicus [1]; oral, gavage, Fischer 344): > 2000 mg/kg | LD50 (Rattus norvegicus [1]; oral, gavage, Sprague-Dawley): 3560 mg/kg

CCCCCCCCCCCCCCCCCCOP1OCC2(CO1)COP(OCCCCCCCCCCCCCCCCCC)OC2 (stereo not drawn) [Distearyl pentaerythritol diphosphite]
LD50 (Oryctolagus sp.; dermal, New Zealand): > 2000 mg/kg | LD50 (Rattus norvegicus [1]; oral, gavage, Sherman Wistar): > 10000 mg/kg | NOAEL (Rattus norvegicus [1]; subchronic, duration: 90 days, oral, diet, Sprague-Dawley): > 288 mg/kg-day

CCCCCCCCCCCCCCCCCCN(C)CCCCCCCCCCCCCCCCCC [Distearylmethylamine]
LD50 (Oryctolagus sp.; dermal, occlusive, New Zealand): > 2000 mg/kg | LD50 (Rattus norvegicus [1]; oral, gavage, Sprague-Dawley): > 5000 mg/kg | LD50 (Rattus norvegicus [1]; oral, gavage, Wistar): > 2000 mg/kg | LOAEL (% diet) (Rattus norvegicus [1]; subchronic, duration: 13 weeks, oral, diet, Sprague-Dawley): 0.15
